Source: patent US12606561B2, “Substituted pyrazolo[1,5-a][1,3,5]triazines as CDK inhibitors” (QURIENT CO., LTD., priority 2018, dated 2026)

Columns and labels:
CDK2/Cyclin A = target: T1, CDK2/Cyclin A (Homo sapiens, UniProt P24941); assay: Enzymatic assay for CDK2 (LANCE Ultra kinase assay, FRET based); type: biochemical; conditions: ATP at Km
T1 construct: purchased Invitrogen PV6290
Procedure, shortened: (§1)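 Inhibition was measured at ATP Km with 68 nM ULight-MBP peptide and CDK2/Cyclin A ([…]) or CDK5/p25 ([…]), using 8-dose 4-fold compound dilutions from DMSO. Kinase reaction ran 60 min at 23° C, then Eu anti-phospho-MBP plus EDTA were added for another 60 min before the fluorescence read.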

CDK5/p25 = target: T2, CDK5/p25 (Homo sapiens, UniProt Q00535); assay: Enzymatic assay for CDK5 (LANCE Ultra kinase assay, FRET based); type: biochemical; conditions: ATP at Km
T2 construct: purchased Invitrogen PR8543B
T2 sequence (Q00535 whole entry): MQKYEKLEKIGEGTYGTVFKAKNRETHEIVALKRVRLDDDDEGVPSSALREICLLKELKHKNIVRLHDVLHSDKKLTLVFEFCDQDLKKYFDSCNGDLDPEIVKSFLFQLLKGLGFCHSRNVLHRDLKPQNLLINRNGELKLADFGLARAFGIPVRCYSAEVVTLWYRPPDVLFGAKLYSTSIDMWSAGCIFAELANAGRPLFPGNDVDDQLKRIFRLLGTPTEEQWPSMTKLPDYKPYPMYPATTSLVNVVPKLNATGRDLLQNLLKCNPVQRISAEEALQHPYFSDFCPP
T2 sequence (Q15078 99-307 partner limits assumed): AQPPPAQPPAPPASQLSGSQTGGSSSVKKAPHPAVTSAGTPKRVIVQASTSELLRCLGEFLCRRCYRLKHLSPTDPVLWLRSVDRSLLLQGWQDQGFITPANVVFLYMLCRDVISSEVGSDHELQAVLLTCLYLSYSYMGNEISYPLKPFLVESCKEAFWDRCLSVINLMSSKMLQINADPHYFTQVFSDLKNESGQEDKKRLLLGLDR
Procedure, shortened: as §1

CDK7/Cyclin H/MNAT1 = target: T3, CDK7/Cyclin H/MNAT1 (Homo sapiens, UniProt P50613); assay: Enzymatic assay for CDK7 (LANCE Ultra kinase assay, FRET based); type: biochemical; conditions: for IC50: ATP at Km
T3 construct: purchased Invitrogen PR6749B
T3 sequence (P50613 whole entry): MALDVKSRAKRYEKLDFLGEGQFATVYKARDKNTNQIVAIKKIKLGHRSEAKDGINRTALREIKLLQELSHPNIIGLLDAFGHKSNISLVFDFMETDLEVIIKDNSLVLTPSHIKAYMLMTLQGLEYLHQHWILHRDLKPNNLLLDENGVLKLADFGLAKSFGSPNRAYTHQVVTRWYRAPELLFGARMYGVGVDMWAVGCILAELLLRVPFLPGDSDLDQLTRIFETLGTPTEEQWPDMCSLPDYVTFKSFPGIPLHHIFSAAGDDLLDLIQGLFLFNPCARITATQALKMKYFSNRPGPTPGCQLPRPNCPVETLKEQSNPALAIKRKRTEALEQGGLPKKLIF
T3 sequence (P51946 whole entry partner): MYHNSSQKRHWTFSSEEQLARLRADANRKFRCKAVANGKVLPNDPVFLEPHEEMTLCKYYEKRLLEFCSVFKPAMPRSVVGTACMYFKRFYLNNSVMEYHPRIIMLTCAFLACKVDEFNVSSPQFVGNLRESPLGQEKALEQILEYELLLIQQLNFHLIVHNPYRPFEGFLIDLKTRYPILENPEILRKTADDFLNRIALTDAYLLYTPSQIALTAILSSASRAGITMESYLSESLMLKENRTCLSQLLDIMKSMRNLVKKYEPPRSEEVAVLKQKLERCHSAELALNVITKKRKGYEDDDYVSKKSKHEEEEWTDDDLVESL
T3 sequence (P51948 whole entry partner): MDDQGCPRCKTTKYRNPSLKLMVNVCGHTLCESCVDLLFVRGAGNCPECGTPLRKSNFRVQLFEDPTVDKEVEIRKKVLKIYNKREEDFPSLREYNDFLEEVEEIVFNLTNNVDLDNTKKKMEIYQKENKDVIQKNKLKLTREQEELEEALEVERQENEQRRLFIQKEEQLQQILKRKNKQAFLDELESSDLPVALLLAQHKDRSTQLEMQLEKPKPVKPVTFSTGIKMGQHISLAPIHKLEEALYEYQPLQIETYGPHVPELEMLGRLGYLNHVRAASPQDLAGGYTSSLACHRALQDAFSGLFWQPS
Procedure, shortened: (§2)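 With ATP set at its Km, compounds were tested against purified CDK/cyclin complexes phosphorylating a ULight-labeled peptide. Signal came from FRET between the peptide and a Europium-labeled anti-phospho-antibody.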

CDK1/Cyclin B = target: T4, CDK1/Cyclin B (Homo sapiens, UniProt P06493); assay: Enzymatic assay for CDK1 (LANCE Ultra kinase assay, FRET based); type: biochemical; conditions: ATP at Km; read-out: CDK1 enzymatic activity IC50
T4 construct: purchased Invitrogen PR4768C
T4 sequence (P06493 whole entry): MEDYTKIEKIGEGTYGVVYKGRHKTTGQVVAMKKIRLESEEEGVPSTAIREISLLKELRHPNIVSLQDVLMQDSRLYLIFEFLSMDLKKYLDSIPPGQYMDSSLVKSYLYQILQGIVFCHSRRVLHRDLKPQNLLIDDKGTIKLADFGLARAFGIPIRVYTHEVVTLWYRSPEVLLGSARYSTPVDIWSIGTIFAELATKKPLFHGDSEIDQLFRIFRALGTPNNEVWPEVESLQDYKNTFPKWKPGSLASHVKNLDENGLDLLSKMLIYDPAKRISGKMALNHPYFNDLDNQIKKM
T4 sequence (P14635 whole entry partner): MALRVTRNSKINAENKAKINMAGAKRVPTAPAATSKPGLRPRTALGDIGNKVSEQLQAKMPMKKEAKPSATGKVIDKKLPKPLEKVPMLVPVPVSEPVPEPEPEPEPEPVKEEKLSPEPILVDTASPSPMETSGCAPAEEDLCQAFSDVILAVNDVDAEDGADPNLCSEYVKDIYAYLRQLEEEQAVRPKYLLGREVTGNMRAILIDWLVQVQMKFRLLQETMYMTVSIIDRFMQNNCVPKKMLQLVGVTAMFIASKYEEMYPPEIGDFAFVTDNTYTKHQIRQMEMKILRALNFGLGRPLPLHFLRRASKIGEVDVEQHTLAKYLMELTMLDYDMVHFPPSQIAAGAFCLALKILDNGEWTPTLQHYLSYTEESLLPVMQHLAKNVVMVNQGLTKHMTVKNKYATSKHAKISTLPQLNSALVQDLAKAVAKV
Procedure, shortened: as §2

H460 = assay: Cellular H460 viability assay (CellTiter-Glo, 72 hours); type: cell-based; conditions: Homo sapiens, NCI-H460; H460 cells
Experimental: All cell lines were routinely tested for mycoplasma.
To effect of the CDK7 inhibitor to inhibit the growth of target cancer cells, viability assay were conducted a 72 hour time period. Briefly, the candidate cell line was plated in 96 well plate at the following density of cells respectively. 1×10^4 cells/well for MV4-11, 5×10^3 for H460 and OVCAR-3, and 1×10^3 for A2780. […] DMSO solvent without compound served as a control and final DMSO concentration lest than 0.1%. After 72 hours of incubation at 37° C., 5% CO2 incubator, cells were analyzed for the viability using the CellTiter-Glo Luminescent Cell Viability Assay (Promega, Cat #G7570). All viability assays were performed in duplicate and Luminescence was read using an Envision (Perkin Elmer, USA). Data was analyzed using XLfit software.

OVCAR-3 = OVCAR-3 viability assay (CellTiter-Glo, 72 hours); type: cell-based; conditions: Homo sapiens; OVCAR-3 cells
Procedure, shortened: (§3)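 After a 24 h attachment period, cells received a 0.0015–10 uM compound titration and were incubated 72 h at 37° C, 5% CO2. Viability came from CellTiter-Glo luminescence measured in duplicate.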

A2780 = A2780 viability assay (CellTiter-Glo, 72 hours); type: cell-based; conditions: Homo sapiens; A2780 cells
Procedure, shortened: as §3

MV4-11 = assay: Cellular MV4-11 viability assay (CellTiter-Glo, 72 hours); type: cell-based; conditions: Homo sapiens; MV4-11 cells
Procedure, shortened: as §3

Row | SMILES | IC50 (CDK2/Cyclin A) [nM] | IC50 (CDK5/p25) [nM] | IC50 (CDK7/Cyclin H/MNAT1) [nM] | CDK1/CDK7: Selectivity of CDK7 inhibition over CDK1 inhibition (CDK7/Cyclin H/MNAT1) | CDK2/CDK7: Selectivity of CDK7 inhibition over CDK2 inhibition (CDK7/Cyclin H/MNAT1) | CDK5/CDK7: Selectivity of CDK7 inhibition over CDK5 inhibition (CDK7/Cyclin H/MNAT1) | IC50 (CDK1/Cyclin B) [nM] | IC50 (H460) [nM] | IC50 (OVCAR-3) [nM] | IC50 (A2780) [nM] | IC50 (MV4-11) [nM]
1 | CC(C)c1cnn2c(NCc3ccccc3NC(=O)c3cccc(NC(=O)/C=C/CN(C)C)c3)nc(N3CCC(N)CC3)nc12 [Compound 8] | > 1000 | 100 to 1000 | < 100 | A (A indicates [fold] > 500) | B (B indicates 50 < [fold] ≤ 500) | B (B indicates 50 < [fold] ≤ 500) | > 1000 | < 1000 |  |  | 
2 | CC(C)c1cnn2c(NCc3ccccc3Oc3ccc(NC(=O)/C=C/CN(C)C)cc3)nc(N3CCC(N)CC3)nc12 [Compound 10] | 100 to 1000 | 100 to 1000 | < 100 | B (B indicates 50 < [fold] ≤ 500) | B (B indicates 50 < [fold] ≤ 500) | C (C indicates [fold] ≤ 50) | > 1000 | < 1000 |  |  | 
3 | CC(C)c1cnn2c(NCc3ccccc3-n3cc4cccc(NC(=O)/C=C/CN(C)C)c4n3)nc(N3CCC(N)CC3)nc12 [Compound 16] | 100 to 1000 | 100 to 1000 | < 100 | B (B indicates 50 < [fold] ≤ 500) | B (B indicates 50 < [fold] ≤ 500) | C (C indicates [fold] ≤ 50) | > 1000 | < 1000 |  |  | 
4 | CC(C)c1cnn2c(NCc3cccc(OC4CCCN(C(=O)/C=C/CN(C)C)CC4)c3)nc(N3CCC(N)CC3)nc12 (racemic) [Compound 18] | 100 to 1000 | 100 to 1000 | < 100 | A (A indicates [fold] > 500) | B (B indicates 50 < [fold] ≤ 500) | B (B indicates 50 < [fold] ≤ 500) | > 1000 | < 1000 |  |  | 
5 | CC(C)c1cnn2c(NCc3ccccc3-c3nccc4c(NC(=O)/C=C/CN(C)C)cccc34)nc(N3CCC(N)CC3)nc12 [Compound 9] |  |  |  |  |  |  |  | 1000 to 10000 |  |  | 
6 | CC(C)c1cnn2c(NCc3cccc(Oc4cccc(NC(=O)/C=C/CN(C)C)c4)c3)nc(N3CCC(N)CC3)nc12 [Compound 2] | 100 to 1000 | 100 to 1000 | < 100 | B (B indicates 50 < [fold] ≤ 500) | B (B indicates 50 < [fold] ≤ 500) | C (C indicates [fold] ≤ 50) | 100 to 1000 | < 1000 |  |  | 
7 | CNC1CCN(c2nc(NCc3ccccc3-c3nccc4cc(NC(=O)/C=C/CN(C)C)ccc34)n3ncc(C(C)C)c3n2)CC1 [Compound 34] | > 1000 | > 1000 | < 100 | A (A indicates [fold] > 500) | A (A indicates [fold] > 500) | A (A indicates [fold] > 500) | > 1000 |  | < 1000 | < 1000 | < 1000
8 | CC(C)c1cnn2c(NCc3ccccc3-c3nccc4cc(NC(=O)/C=C/CN5CCOCC5)ccc34)nc(N3CCC(N)CC3)nc12 [Compound 53] | > 1000 | > 1000 | < 100 | A (A indicates [fold] > 500) | A (A indicates [fold] > 500) | A (A indicates [fold] > 500) | > 1000 |  | < 1000 | < 1000 | < 1000
9 | C=CC(=O)Nc1cccc2ccc(-c3cccc(C)c3CNc3nc(NC[C@H]4CCNC[C@@H]4O)nc4c(C(C)C)cnn34)nc12 [Compound 67] | > 1000 | > 1000 | < 100 | A (A indicates [fold] > 500) | A (A indicates [fold] > 500) | A (A indicates [fold] > 500) | > 1000 |  | < 1000 | < 1000 | < 1000
10 | COC/C=C/C(=O)Nc1ccc2c(-c3ccccc3CNc3nc(N4CCC(N)CC4)nc4c(C(C)C)cnn34)nccc2c1 [Compound 54] | > 1000 | > 1000 | < 100 | A (A indicates [fold] > 500) | A (A indicates [fold] > 500) | A (A indicates [fold] > 500) | > 1000 |  | < 1000 | < 1000 | < 1000
11 | CC(C)c1cnn2c(NCc3ccccc3-c3nccc4cc(NC(=O)/C=C/CN(C)C)ccc34)nc(N3CCOCC3)nc12 [Compound 42] | > 1000 | > 1000 | 100 to 1000 | B (B indicates 50 < [fold] ≤ 500) | B (B indicates 50 < [fold] ≤ 500) | B (B indicates 50 < [fold] ≤ 500) | > 1000 |  | < 1000 | < 1000 | < 1000
12 | CC(C)c1cnn2c(NCc3ccccc3-c3nccc4cc(NC(=O)/C=C/CN5CCCCC5)ccc34)nc(N3CCC(N)CC3)nc12 [Compound 52] | > 1000 | > 1000 | < 100 | A (A indicates [fold] > 500) | A (A indicates [fold] > 500) | A (A indicates [fold] > 500) | > 1000 |  | < 1000 | < 1000 | < 1000
13 | Cc1cccc(-c2ccc3cccc(NC(=O)/C=C/CN(C)C)c3n2)c1CNc1nc(N2CCC(N)CC2)nc2c(C(C)C)cnn12 [Compound 56] | > 1000 | > 1000 | < 100 | A (A indicates [fold] > 500) | A (A indicates [fold] > 500) | A (A indicates [fold] > 500) | > 1000 |  | < 1000 | < 1000 | < 1000
14 | C/C=C/C(=O)Nc1ccc2c(-c3ccccc3CNc3nc(NCC4CNCCO4)nc4c(C(C)C)cnn34)nccc2c1 (racemic) [Compound 69] | > 1000 | > 1000 | < 100 | B (B indicates 50 < [fold] ≤ 500) | B (B indicates 50 < [fold] ≤ 500) | B (B indicates 50 < [fold] ≤ 500) | > 1000 |  | < 1000 | < 1000 | < 1000
15 | C/C=C/C(=O)Nc1ccc2c(-c3ccccc3CNc3nc(N4CCNCC4)nc4c(C(C)C)cnn34)nccc2c1 [Compound 71] | > 1000 | > 1000 | < 100 | B (B indicates 50 < [fold] ≤ 500) | B (B indicates 50 < [fold] ≤ 500) | B (B indicates 50 < [fold] ≤ 500) | > 1000 |  | < 1000 | < 1000 | < 1000
16 | CC(C)c1cnn2c(NCc3cccc(Oc4ccc(F)c(NC(=O)/C=C/CN(C)C)c4)c3)nc(N3CCC(N)CC3)nc12 [Compound 13] |  |  |  |  |  |  |  | < 1000 |  |  | 
17 | CC(C)c1cnn2c(NCc3ccccc3-c3nccc4cc(NC(=O)/C=C/CN5CCCC5)ccc34)nc(N3CCC(N)CC3)nc12 [Compound 57] | > 1000 | > 1000 | < 100 | A (A indicates [fold] > 500) | A (A indicates [fold] > 500) | A (A indicates [fold] > 500) | > 1000 |  | < 1000 | < 1000 | < 1000
